From patent publication US10138236B2, “Factor xia-inhibiting pyridobenzazepine and pyridobenzazocine derivatives” (BAYER PHARMA AKTIENGESELLSCHAFT, priority 2014, dated 2018)

Assays:
[1] = molecular target: human plasma kallikrein (Homo sapiens (Human), UniProt P03952); assay: Determination of the plasma kallikrein activity; assay type: biochemical; conditions: plasma kallikrein from Kordia, substrate H-Pro-Phe-Arg-AMC, fluorescence
Protocol: a.5) Determination of the Plasma Kallikrein Activity
(§1) To determine the plasma kallikrein inhibition of the substances according to the invention, a biochemical test system is used which utilizes the reaction of a peptidic plasma kallikrein substrate to determine the enzymatic activity of human plasma kallikrein. Here, plasma kallikrein cleaves from the peptic plasma kallikrein substrate the C-terminal aminomethylcoumarin (AMC), the fluorescence of which is measured. The determinations are carried out in microtitre plates.
1 μl of the diluted substance solutions is placed into each of the wells of white microtitre plates from Greiner (384 wells). 20 μl of assay buffer (50 mM Tris/HCl pH 7.4; 100 mM sodium chloride solution; 5 mM of calcium chloride solution; 0.1% of bovine serum albumin) and 20 μl of plasma kallikrein from Kordia (0.6 nM in assay buffer) are then added successively. After 15 min of incubation, the enzyme reaction is started by addition of 20 μl of the substrate H-Pro-Phe-Arg-AMC dissolved in assay buffer (10 μM in assay buffer) from Bachem, the mixture is incubated at room temperature (22° C.) for 30 min and fluorescence is then measured (excitation: 360 nm, emission: 460 nm). The measured emissions of the test batches with test substance are compared to those of control batches without test substance (only dimethyl sulphoxide instead of test substance in dimethyl sulphoxide), and IC50 values are calculated from the concentration/activity relationships.

[2] = molecular target: human factor XIa (Homo sapiens (Human), UniProt P03951); assay: Measurement of FXIa inhibition; assay type: biochemical; conditions: factor XIa from Kordia, substrate Boc-Glu(OBzl)-Ala-Arg-AMC, fluorescence
Protocol: a.1) Measurement of FXIa Inhibition
as §1, with “The factor XIa” for “To determine the plasma kallikrein”, “invention is determined using” for “invention,”, “system” for “system is used”, “factor XIa” for “plasma kallikrein”, “factor XIa.” for “plasma kallikrein.”
1 μl of the diluted substance solutions is placed into each of the wells of white microtitre plates from Greiner (384 wells). […] After 15 min of incubation, the enzyme reaction is started by addition of 20 μl of the factor XIa substrate Boc-Glu(OBzl)-Ala-Arg-AMC dissolved in assay buffer (10 μM in assay buffer) from Bachem, the mixture is incubated at room temperature (22° C.) for 30 min and fluorescence is then measured (excitation: 360 nm, emission: 460 nm). The measured emissions of the test batches with test substance are compared to those of control batches without test substance (only dimethyl sulphoxide instead of test substance in dimethyl sulphoxide), and IC50 values are calculated from the concentration/activity relationships.

human factor XIa, sequence (P03951 388-625): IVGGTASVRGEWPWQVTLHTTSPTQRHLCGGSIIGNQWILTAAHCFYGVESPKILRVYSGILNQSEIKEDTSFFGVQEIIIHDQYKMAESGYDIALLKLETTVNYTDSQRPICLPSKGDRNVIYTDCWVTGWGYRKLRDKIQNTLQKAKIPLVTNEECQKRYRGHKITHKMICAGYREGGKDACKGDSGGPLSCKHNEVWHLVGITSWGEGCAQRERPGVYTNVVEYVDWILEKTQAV
human factor XIa, sequence (P03951 19-387 partner): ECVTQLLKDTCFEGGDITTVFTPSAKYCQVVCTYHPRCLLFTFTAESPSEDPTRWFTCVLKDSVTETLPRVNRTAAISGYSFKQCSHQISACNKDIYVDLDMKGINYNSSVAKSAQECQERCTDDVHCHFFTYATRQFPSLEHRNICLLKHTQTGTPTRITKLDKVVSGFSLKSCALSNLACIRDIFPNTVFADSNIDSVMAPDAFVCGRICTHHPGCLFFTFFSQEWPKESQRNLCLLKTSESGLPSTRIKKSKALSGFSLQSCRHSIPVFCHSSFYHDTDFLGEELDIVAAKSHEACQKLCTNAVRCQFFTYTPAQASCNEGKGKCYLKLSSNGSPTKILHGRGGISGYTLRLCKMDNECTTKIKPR
human plasma kallikrein, sequence (P03952 391-638): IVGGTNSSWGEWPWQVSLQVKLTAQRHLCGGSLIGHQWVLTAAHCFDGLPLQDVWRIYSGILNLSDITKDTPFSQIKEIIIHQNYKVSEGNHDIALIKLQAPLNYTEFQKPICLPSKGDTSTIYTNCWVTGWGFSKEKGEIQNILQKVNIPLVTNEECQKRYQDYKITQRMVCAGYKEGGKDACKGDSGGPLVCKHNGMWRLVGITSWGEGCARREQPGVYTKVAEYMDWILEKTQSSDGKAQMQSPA
human plasma kallikrein, sequence (P03952 20-390 partner): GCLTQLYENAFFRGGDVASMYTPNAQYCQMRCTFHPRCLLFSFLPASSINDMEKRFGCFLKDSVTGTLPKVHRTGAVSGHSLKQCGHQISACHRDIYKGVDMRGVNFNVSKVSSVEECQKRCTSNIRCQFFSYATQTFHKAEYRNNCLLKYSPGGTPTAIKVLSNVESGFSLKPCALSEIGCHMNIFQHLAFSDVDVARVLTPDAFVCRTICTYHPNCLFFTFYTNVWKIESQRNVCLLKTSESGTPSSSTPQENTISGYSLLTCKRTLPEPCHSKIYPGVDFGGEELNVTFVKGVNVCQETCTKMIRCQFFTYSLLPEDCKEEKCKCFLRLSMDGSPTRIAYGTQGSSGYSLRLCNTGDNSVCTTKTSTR

Compound COCCC(C(=O)Nc1csc(C(=O)O)c1)n1cc2c(cc1=O)-c1cc(Cl)ccc1CC1(CC1)NC2=O (stereo not drawn) [Example 24, 4-{[2-(11′-Chloro-2′,5′-dioxo-2′,5′,6′,8′-tetrahydro-3′H-spiro[cyclopropane-1,7′-pyrido[3,4-e][3]benzazocine]-3′-yl)-4-methoxybutanoyl]amino}thiophene-2-carboxylic acid] has an IC50 [1] of 800 nM and an IC50 [2] of 35 nM.
CCC(C(=O)Nc1ccc(C(=O)O)cc1)n1cc2c(cc1=O)-c1cc(Cl)ccc1C1(CC1)NC2=O (stereo not drawn) [Example 3, 4-{[2-(10′-Chloro-2′,5′-dioxo-5′,6′-dihydrospiro[cyclopropane-1,7′-pyrido[3,4-d][2]benzazepine]-3′(2′H)-yl)butanoyl]amino}benzoic acid] showed an IC50 [1] of over 50000 nM and an IC50 [2] of 180 nM.
CO[C@H]1CC[C@H](CC(C(=O)Nc2ccc3[nH]c(=O)[nH]c3c2)n2cc3c(cc2=O)-c2cc(Cl)ccc2CC2(CC2)NC3=O)CC1 (stereo partly drawn) [Example 27, 2-(11′-Chloro-2′,5′-dioxo-2′,5′,6′,8′-tetrahydro-3′H-spiro[cyclopropane-1,7′-pyrido[3,4-e][3]benzazocine]-3′-yl)-3-(trans-4-methoxycyclohexyl)-N-(2-oxo-2,3-dihydro-1H-benzimidazol-5-yl)propanamide] showed an IC50 [1] of 250 nM and an IC50 [2] of 18 nM.
Work on O=C(Cn1cc2c(cc1=O)-c1cc(Cl)ccc1CCNC2=O)Nc1ccc(-c2noc(=O)[nH]2)cc1 [Example 5, 2-(11-Chloro-2,5-dioxo-5,6,7,8-tetrahydropyrido[3,4-e][3]benzazocin-3(2H)-yl)-N-[4-(5-oxo-4,5-dihydro-1,2,4-oxadiazol-3-yl)phenyl]acetamide] yielded an IC50 [1] of 8300 nM and an IC50 [2] of 350 nM.
COCCC(C(=O)Nc1ccc2[nH]ncc2c1)n1cc2c(cc1=O)-c1cc(Cl)ccc1CC1(CC1)NC2=O (stereo not drawn) [Example 18, 2-(11′-Chloro-2′,5′-dioxo-2′,5′,6′,8′-tetrahydro-3′H-spiro[cyclopropane-1,7′-pyrido[3,4-e][3]benzazocine]-3′-yl)-N-(1H-indazol-5-yl)-4-methoxybutanamide] showed an IC50 [1] of 330 nM and an IC50 [2] of 21 nM.
In the case of CCC(C(=O)Nc1ccc(C(=O)O)cc1)n1cc2c(cc1=O)-c1cc(Cl)ccc1CNC2=O (stereo not drawn) [Example 1, 4-{[2-(10-Chloro-2,5-dioxo-2,5,6,7-tetrahydro-3H-pyrido[3,4-d][2]benzazepin-3-yl)butanoyl]amino}benzoic acid], the IC50 [1] is reported as over 10000 nM and the IC50 [2] is reported as 420 nM.
Compound COCCC(C(=O)Nc1ccc2nccn2c1)n1cc2c(cc1=O)-c1cc(Cl)ccc1CC1(CC1)NC2=O (stereo not drawn) [Example 17, 2-(11′-Chloro-2′,5′-dioxo-2′,5′,6′,8′-tetrahydro-3′H-spiro[cyclopropane-1,7′-pyrido[3,4-e][3]benzazocine]-3′-yl)-N-(imidazo[1,2-a]pyridin-6-yl)-4-methoxybutanamide] has an IC50 [1] of 1200 nM and an IC50 [2] of 44 nM.
In the case of O=C(Cn1cc2c(cc1=O)-c1cc(Cl)ccc1CCNC2=O)Nc1ccc(C(=O)O)cc1 [Example 4, 4-{[(11-Chloro-2,5-dioxo-5,6,7,8-tetrahydropyrido[3,4-e][3]benzazocin-3(2H)-yl)acetyl]amino}benzoic acid], the IC50 [1] is reported as 18000 nM and the IC50 [2] is reported as 720 nM.
Work on COCCC(C(=O)Nc1ccc(C(=O)O)cc1)n1cc2c(cc1=O)-c1cc(Cl)ccc1CC1(CC1)NC2=O (stereo not drawn) [Example 12, 4-{[2-(11′-Chloro-2′,5′-dioxo-2′,5′,6′,8′-tetrahydro-3′H-spiro[cyclopropane-1,7′-pyrido[3,4-e][3]benzazocine]-3′-yl)-4-methoxybutanoyl]amino}benzoic acid] yielded an IC50 [1] of 390 nM and an IC50 [2] of 1.9 nM.
CC(C)CC(C(=O)Nc1ccc(-c2noc(=O)[nH]2)cc1)n1cc2c(cc1=O)-c1cc(Cl)ccc1CCNC2=O (stereo not drawn) [Example 9, 2-(11-Chloro-2,5-dioxo-5,6,7,8-tetrahydropyrido[3,4-e][3]benzazocin-3(2H)-yl)-4-methyl-N-[4-(5-oxo-4,5-dihydro-1,2,4-oxadiazol-3-yl)phenyl]pentanamide] showed an IC50 [1] of 3800 nM and an IC50 [2] of 140 nM.
For COCCC(C(=O)Nc1ccc(C(=O)O)nc1)n1cc2c(cc1=O)-c1cc(Cl)ccc1CC1(CC1)NC2=O (stereo not drawn) [Example 20, 5-{[2-(11′-Chloro-2′,5′-dioxo-2′,5′,6′,8′-tetrahydro-3′H-spiro[cyclopropane-1,7′-pyrido[3,4-e][3]benzazocine]-3′-yl)-4-methoxybutanoyl]amino}pyridine-2-carboxylic acid], the IC50 [1] was 4500 nM and the IC50 [2] was 47 nM.
For COCCC(C(=O)Nc1ccn2nccc2c1)n1cc2c(cc1=O)-c1cc(Cl)ccc1CC1(CC1)NC2=O (stereo not drawn) [Example 16, 2-(11′-Chloro-2′,5′-dioxo-2′,5′,6′,8′-tetrahydro-3′H-spiro[cyclopropane-1,7′-pyrido[3,4-e][3]benzazocine]-3′-yl)-4-methoxy-N-(pyrazolo[1,5-a]pyridin-5-yl)butanamide], the IC50 [1] was 210 nM and the IC50 [2] was 11 nM.
